Patent US6753424B1, “Conjugates of DNA interacting groups with steroid hormones for use as nucleic acid transfection agents” (priority 1998, dated 2004)

Assays:
HUH-7 cells = test: Transfection enhancement, CMV-LacZ reporter, HUH-7 cells; type: cell-based, human
Experimental: Conditions: HUH-7 cells are human hepatoma cells that contain substantial amounts of glucocorticoid receptor. The cells are transfected with an expression vector that is constitutively expressing the reporter gene LacZ (CMV-LacZ). Transfection conditions and analysis of LacZ reporter are the same as described in Example 7 legend. Transfection is performed O/N and after rinsing of the precipitate the cells are further incubated for 24 hours. LacZ levels are determined from cell extracts with a chemiluminescence LacZ enzyme assay (Galactolight plus, Tropix). The relative luminescence from each extract is given. Each value represents an individual extract. “Induction”: relative reporter gene activity (values divided by value of assay in lane 9, true negative control for DNA liganding). rel/RLU=(RLU:protein)×1000; net=rel/RLU−600 (600=rel/RLU value approximately corresponding to rel/RLU value of mock transfection).

[1] = tested on: CV-1 cells reconstituted with exogenous GR; test: Transfection enhancement, CMV-LacZ reporter, CV-1 cells reconstituted with exogenous GR; type: cell-based, monkey
Experimental: Conditions: CV-1 cells are first infected with an adenovirus system allowing expression of GR in >90% of the cells (S. B. Verca, unpublished). After 24 hours the cells are; transfected with an expression vector that is constitutively expressing the reporter gene LacZ (CMV-LacZ). Transfection conditions and analysis of LacZ reporter are the same as described in Example 7 legend. Transfection is performed O/N and after rinsing of the precipitate the cells are further incubated for 24 hours. LacZ levels are determined from cell extracts with a chemiluminescence LacZ enzyme assay (Galactolight plus, Tropix). The relative luminescence from each extract is given. Each value represents an individual extract. “Induction”: relative reporter gene activity (values divided by value of assay in lane 9, true negative control for liganding), rel/RLU=(RLU:protein)×1000, net=rel/RLU−600 (600=rel/RLU value approximately corresponding to rel/RLU value of mock transfection).

3Y1 cells = test: Transfection enhancement, CMV-LacZ reporter, CaPO4 transfection of 3Y1 cells; type: cell-based, rat; conditions: for light units (relative luminescence, LacZ): 5 μg reporter, 3Y1
Experimental: Conditions: 3Y1 cells are transfected with an expression vector that is constitutively expressing the reporter gene LacZ (CMV-LacZ). Transfection conditions are identical throughout the various samples (total 10-12 μq DNA for 4 cm dishes). In some samples the DNA used for the transfection cocktail is pre-incubated with various conjugates at the given concentrations. The concentrations are calculated to give from 10−8 to 10−6 M after dispersing the CaPO4 precipitate in the recipient dish (5 ml volume). Transfection is performed O/N and after rinsing of the precipitate the cells are further incubated for 24 hours. LacZ levels are determined from cell extracts with a chemiluminescence LacZ enzyme assay (Galactolight plus. Tropix). The relative luminescence from each extract is given in RLU/mg*1000.
Cell culture. Cells are cultivated in DMEM supplemented with serum and antibiotica according to standard conditions (typically 10% FCS and Pen/Strep as antibiotica). At the day of transfection, cells are trypsinized and seeded at around 25-30% confluency. Cells are allowed to adhere to dish for 4-6 hours prior to transfection.
DNA pre-incubation (example for conditions that give5×10 exp (−6) Molar final concentration of the CL-C4-EtBr conjugate):
5 microgram of CMV-LacZ DNA (in 10 microliter TE) are mixed with 10 nmoles of hormone derivative (10 microliters stock solution) and incubated for 10 min at room temperature (final volume: 20 ul). The DNA/cortisol-C4-ethidum mix is then supplemented with 7 micrograms sheared calf thymus carrier DNA (in 14 microliters TE) and bidistilled water to give a final volume of 125 microliters.
Transfection by CaPO4: to each transfection sample (125 microliter volume DNA+water). 125 microliters of Ca ++ mix are added, and the mix is incubated for 5-10 min at room temperature. Each sample is then supplemented with 250 microliter of Pi-mix (with simultaneous mixing by up-down pipetting) and is further incubated 10 minutes at room temperature after which the cocktail is poured on top of the medium (5 ml) of each cell culture dish (4 cm diameter). The optimal time of incubation after Pi-mix addition is pre-determined by prior evaluation (size of the precipitate) of parallel samples. The precipitate is allowed to deposit onto the cells for 15 hours (incubation of 37 degrees, 5% CO2). The cells are then rinsed twice with Tris-buffered Saline, supplemented with fresh medium and further incubated under standard conditions. To analyze LacZ reporter gene function, the cells are either fixed or harvested 24 hours after precipitate removal.
Variation of parameters: samples in which the C1-C4-EtBr conjugates (or control compounds) are used at different concentrations, are similarly treated, except that the concentration of the stock solution in ethanol is correspondingly varied.

[2] = Stability of C-21 ester versus C-21 urethane derivatives (TLC analysis); type: in vitro ADME; conditions: pH 5, pH 9, proteinase K (pH 7.8, 50 μg/ml), dispase (2.4 U/ml), cellular extracts, DMEM/10% FCS
Experimental: b) water buffered to pH 9;
c) water buffered to pH 5;
e) proteinase K (pH 7.8; 50 μg/ml);
After 15 hours of incubation each sample is separately extracted with 400 μl Ethyl acetate, evaporated under N2-flow, redissolved in 20 μl Ethyl acetate and analysed by TLC analysis: stationary phase: Alugram SIL G-25 UV254 (Macherey Nagel AG); mobile phase: Ethyl acetate-MeOH-Acetone (3-1-3).

GR-GFP chimera = test: Nuclear Transfer Induction assay (NTI), monourethane ligands, HeLa cells; type: cell-based; conditions: 1 hr
Experimental: Conditions: HeLa cells are transiently transfected by CaPO4 with an expression vector encoding a GR-GFP chimera (5 μg in transfection cocktail, 4 cm diameter dishes, DMEM with 3% FCS). After 24 hour expression, ligand is added for 1 hr and cells are fixed with formaldehyde (5 min 4° C.) and inspected by fluorescence microscopy. Fluorescent cells are counted and divided into different classes according to ‘cytoplasmic’ (C) versus ‘nuclear’ (N) localisation of fluorescence.
First column: “Conditions”: Name of compounds added (marked at top: ‘//ligand’), and their concentration (in parentheses) and assay number (01 through 21).
Values are given as percentage of cells displaying the corresponding localisatidn, within each tested condition the sum is 100%.

[3] = tested on: CV-1 cells reconstituted with exogenous GR; test: Transfection enhancement, CMV-LacZ reporter, CV-1 cells reconstituted with exogenous GR; type: cell-based, monkey; conditions: CV-1 cells that have not been supplemented with GR; data not shown

| SMILES | RLU (HUH-7 cells; ligand 10-6, HUH-7) | induction (relative reporter gene activity, divided by value of lane 9) (HUH-7 cells; ligand 10-6, HUH-7) | net (HUH-7 cells; ligand 10-6, HUH-7) | rel/RLU (HUH-7 cells; ligand 10-6, HUH-7) | RLU ([1]; ligand 10-6, CV-1 with GR) | induction (relative reporter gene activity, divided by value of lane 9) ([1]; ligand 10-6, CV-1 with GR) | net = rel/RLU−600 ([1]; ligand 10-6, CV-1 with GR) | rel/RLU = (RLU:protein)×1000 ([1]; ligand 10-6, CV-1 with GR) | RLU ([1]; ligand 10-7, CV-1 with GR) | induction (relative reporter gene activity, divided by value of lane 9) ([1]; ligand 10-7, CV-1 with GR) | net = rel/RLU−600 ([1]; ligand 10-7, CV-1 with GR) | rel/RLU = (RLU:protein)×1000 ([1]; ligand 10-7, CV-1 with GR) | light units (relative luminescence, LacZ) (3Y1 cells; ligand 10^-6M) [RLU/mg*1000] | light units (relative luminescence, LacZ) (3Y1 cells; ligand 10^-7M) [RLU/mg*1000] | light units (relative luminescence, LacZ) (3Y1 cells; ligand 10^-8M) [RLU/mg*1000] | C < N, percentage of cells (GR-GFP chimera; ligand 1.10-6M) [%] | C << N, percentage of cells (GR-GFP chimera; ligand 1.10-6M) [%] | C = N, percentage of cells (GR-GFP chimera; ligand 1.10-6M) [%] | C > N, percentage of cells (GR-GFP chimera; ligand 1.10-6M) [%] | C >> N, percentage of cells (GR-GFP chimera; ligand 1.10-6M) [%] | also measured |
| --- | --- | --- | --- | --- | --- | --- | --- | --- | --- | --- | --- | --- | --- | --- | --- | --- | --- | --- | --- | --- | --- |
| CC[n+]1c(-c2ccccc2)c2cc(N)ccc2c2ccc(N)cc21 [EtBr, Ethidium Bromide, reference compound] | 168920 | 1.49 | 103 | 233.3 | 851 | 0.77 | 626.2 | 1226.2 | 1632 | 2.01 | 1626 | 2226.5 | 2250 | 2500 | 2750 |  |  |  |  |  |  |
| Cc1oc2c(C)c3oc(=O)cc(C)c3cc2c1CNC(=O)CCCCCCCCCCNC(=O)OCC(=O)[C@@]1(O)CCC2C3CCC4=CC(=O)CCC4(C)C3C(O)CC21C (stereo partly drawn) [CL-C12-Pso] |  |  |  |  |  |  |  |  |  |  |  |  |  |  |  | 53 | 22 | 25 | 0 | 0 | stability of urethane bond between steroid moiety, spacer and DNA binder [2]: stable; C < N, percentage of cells (GR-GFP chimera; ligand 1.10-7M): 3%; C << N, percentage of cells (GR-GFP chimera; ligand 1.10-7M): 0%; C = N, percentage of cells (GR-GFP chimera; ligand 1.10-7M): 52%; C > N, percentage of cells (GR-GFP chimera; ligand 1.10-7M): 40%; C >> N, percentage of cells (GR-GFP chimera; ligand 1.10-7M): 5% |
| CC[n+]1c(-c2ccccc2)c2cc(NC(=O)CCNC(=O)OCC(=O)[C@@]3(O)CCC4C5CCC6=CC(=O)CCC6(C)C5C(O)CC43C)ccc2c2ccc(N)cc21 (stereo partly drawn) [CL-C4-EtBr] | 629514 | 7.84 | 543 | 673.3 | 10010 | 17.3 | 13992 | 14592 | 1988 | 2.75 | 2232 | 2831.9 | 7250 | 3750 | 2750 | 45 | 0 | 55 | 0 | 0 | improvement of expression (HUH-7 cells; lane 07 (10-6) versus lanes 8-9, HUH-7): 7-8 fold; RLU (HUH-7 cells; ligand 10-7, HUH-7): 198082; induction (relative reporter gene activity, divided by value of lane 9) (HUH-7 cells; ligand 10-7, HUH-7): 1.95; net (HUH-7 cells; ligand 10-7, HUH-7): 135; rel/RLU (HUH-7 cells; ligand 10-7, HUH-7): 265.2; improvement of expression ([1]; lane 06 (10-6) versus lanes 7-9, CV-1 with GR): 15-20 fold; RLU ([1]; ligand 10-8, CV-1 with GR): 1211; induction (relative reporter gene activity, divided by value of lane 9) ([1]; ligand 10-8, CV-1 with GR): 1.33; net = rel/RLU−600 ([1]; ligand 10-8, CV-1 with GR): 1075; rel/RLU = (RLU:protein)×1000 ([1]; ligand 10-8, CV-1 with GR): 1675; improvement of expression (3Y1 cells; lane 10 (10^-6M) versus lanes 11-13, 3Y1): 5-7 fold; SMGD effect (transfection enhancement) [3]: No SMGD effect; C < N, percentage of cells (GR-GFP chimera; ligand 1.10-7M): 9%; C << N, percentage of cells (GR-GFP chimera; ligand 1.10-7M): 0%; C = N, percentage of cells (GR-GFP chimera; ligand 1.10-7M): 74%; C > N, percentage of cells (GR-GFP chimera; ligand 1.10-7M): 17%; C >> N, percentage of cells (GR-GFP chimera; ligand 1.10-7M): 0% |
